Experimental data as given in patent US7557102B2, “Pyrazolidine-1,2-dicarboxyldiphenylamide derivatives as coagulation factor Xa inhibitors for the treatment of thromboses” (Merck Patent GmbH, priority 2003, dated 2009).

These molecules were tested against FXa (Homo sapiens, UniProt P00742) (assay: Inhibition of factor Xa (Table 1, Pharmacological Data)).
Assay type: biochemical

Sequence of FXa (P00742 235-488 limits assumed): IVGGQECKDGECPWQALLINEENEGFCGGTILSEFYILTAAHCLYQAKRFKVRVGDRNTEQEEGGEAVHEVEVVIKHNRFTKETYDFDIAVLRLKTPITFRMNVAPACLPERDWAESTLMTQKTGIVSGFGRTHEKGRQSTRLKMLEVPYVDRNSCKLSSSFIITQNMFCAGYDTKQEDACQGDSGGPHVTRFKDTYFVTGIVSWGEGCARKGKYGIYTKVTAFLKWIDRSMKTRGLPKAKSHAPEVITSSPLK
Sequence of FXa (P00742 41-179 limits assumed): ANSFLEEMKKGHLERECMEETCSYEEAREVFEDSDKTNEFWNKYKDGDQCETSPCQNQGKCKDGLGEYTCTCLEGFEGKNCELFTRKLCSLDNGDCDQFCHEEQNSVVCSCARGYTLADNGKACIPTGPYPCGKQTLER

IC50	SMILES
55 nM	O=C(Nc1ccc(Br)cc1)N1CCCN1C(=O)Nc1ccc(-n2ccccc2=O)cc1 [Compound A3, 1-N-[(4-bromophenyl)]-2-N-{[4-(2-oxo-2H-pyridin-1-yl)phenyl]}pyrazolidine-1,2-dicarboxamide]
120 nM	O=C1COCCN1c1ccc(NC(=O)N2CCCN2C(=O)Nc2ccc(Cl)cc2)cc1Cl [Compound A2, 1-N-[(4-chlorophenyl)]-2-N-{[3-chloro-4-(3-oxomorpholin-4-yl)phenyl]}-pyrazolidine-1,2-dicarboxamide]
75 nM	C#Cc1ccc(NC(=O)N2CCCN2C(=O)Nc2ccc(N3CCOCC3=O)c(Cl)c2)cc1 [Compound A1, 1-N-[(4-Ethynylphenyl)]-2-N-{[3-chloro-4-(3-oxomorpholin-4-yl)phenyl]}-pyrazolidine-1,2-dicarboxamide]
